Results on 2 molecules are retold here after PMC4382465 (The Journal of antibiotics, 2014).

As a reminder, the MIC is the lowest concentration that inhibits growth of the organism. Low readings indicate a more susceptible organism, high ones a less susceptible organism.

≈ marks a conversion by molar mass, not a printed value.

For assay [1], the system named is M. tuberculosis H37Rv RFPr. The assay can be described thus: MIC, broth dilution. It counts as cell-based. To be noted: Mycobacterium tuberculosis. (In general: Dilution methods test growth across graded concentrations, often in twofold steps.)
The test system of assay [2] is M. tuberculosis H37Rv INHr. The assay can be described thus: MIC, broth dilution. In kind it is cell-based. To be noted: Mycobacterium tuberculosis.

Molecule `CO[C@H]1/C=C/O[C@@]2(C)Oc3c(C)c(O)c4c(O)c(c(/C=N/N5CCN(C)CC5)c(O)c4c3C2=O)NC(=O)/C(C)=C\C=C\[C@H](C)[C@H](O)[C@@H](C)[C@@H](O)[C@@H](C)[C@H](OC(C)=O)[C@@H]1C` [Rifampicin (RFP), Rifampicin] gave a minimum inhibitory concentration (MIC) in assay [1] of over 4 µg/mL.

On to `COC1C(C(OC2OC(C(=O)NC3CCCCNC3=O)=CC(O)C2O)C(N)=O)OC(n2ccc(=O)[nH]c2=O)C1OC` (stereo not drawn) [UT-01320 (3), 6-{Carbamoyl-[5-(2,4-dioxo-3,4-dihydro-2H-pyrimidin-1-yl)-3,4-dimethoxy-tetrahydro-furan-2-yl]-methoxy}-4,5-dihydroxy-5,6-dihydro-4H-pyran-2-carboxylic acid (2-oxo-azepan-3-yl)-amide], for which the MIC is 2.45 µg/mL (≈ 4.2 µM) in assay [1] and 2.5 µg/mL (≈ 4.28 µM) in assay [2].
